One assay relates to P815 tumor. Conditions: pre-immunized immune-competent mice; cited from earlier work.
For the next assay, the system named is LLC tumors. To be noted: C57B1/6 mice, versus placebo; cited from earlier work.
Assay [1] has as its target T1, Human indoleamine 2,3-dioxygenasae (IDO) (Homo sapiens, UniProt P14902).
T1 construct: His tag (N); made in house; host or cells: E. coli
Briefly: Human indoleamine 2,3-dioxygenase (IDO) enzyme assay. Format: biochemical. Conditions: 95 nM IDO, 2 mM D-Trp, pH 6.5, room temperature, absorbance at 321 nm. The method, then: Human indoleamine 2,3-dioxygenasae (IDO) with an N-terminal His tag was expressed in E. coli and purified to homogeneity. IDO catalyzes the oxidative cleavage of the pyrrole ring of the indole nucleus of tryptophan to yield N′-formylkynurenine. The assays were performed at room temperature as described in the literature using 95 nM IDO and 2 mM D-Trp in the presence of 20 mM ascorbate, 5 μM methylene blue and 0.2 mg/mL catalase in 50 mM potassium phosphate buffer (pH 6.5). The initial reaction rates were recorded by continuously following the absorbance increase at 321 nm due to the formation of N′-formlylkynurenine. […] The symbol “+” indicates IC50<[…]. The symbol “++” indicates […]. The symbol “+++” indicates IC50>[…].

Some results are limits rather than exact numbers.

T1 sequence (P14902 whole entry): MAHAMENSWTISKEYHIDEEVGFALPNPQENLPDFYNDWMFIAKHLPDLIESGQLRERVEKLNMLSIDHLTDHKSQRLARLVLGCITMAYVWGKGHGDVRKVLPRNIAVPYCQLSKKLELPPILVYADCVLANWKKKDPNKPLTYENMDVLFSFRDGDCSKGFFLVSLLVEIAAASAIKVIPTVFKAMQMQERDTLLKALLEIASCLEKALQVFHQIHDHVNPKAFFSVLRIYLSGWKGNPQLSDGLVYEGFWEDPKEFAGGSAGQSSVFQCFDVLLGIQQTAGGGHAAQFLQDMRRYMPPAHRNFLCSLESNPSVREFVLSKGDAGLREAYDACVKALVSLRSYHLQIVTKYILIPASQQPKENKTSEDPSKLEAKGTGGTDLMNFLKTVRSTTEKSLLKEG

On to `Cn1cc(C[C@H](N)C(=O)O)c2ccccc21` [Example 1-MT, 1-methyl-tryptophan], for which the growth of tumors result with P815 tumor was “inhibited”. The formation of tumors result in the assay on LLC tumors is “markedly delayed”. For the compound `N#Cc1cccc(NC(=NO)c2ccoc2)c1` [Example 11, N-(3-cyanophenyl)-N′-hydroxy-furan-3-carboximidamide], the IC50 in assay [1] was more than 10 µM.

For `N#Cc1cc(NC(=NO)c2ccoc2)ccc1F` [Example 12, N-(3-cyano-4-fluorophenyl)-N′-hydroxyfuran-3-carboximidamide], the IC50 in assay [1] was more than 10 µM.

For orientation: IC50 means the point on the concentration scale where inhibition reaches its midpoint. Higher therefore signals weaker potency.

Source of the values: patent US20080146624A1, “AMIDINES AS MODULATORS OF INDOLEAMINE 2,3-DIOXYGENASE” (INCYTE CORPORATION, priority 2006, published 2008).
